According to patent US20090004137A1, “Uridine Derivatives as Antiviral Drugs Against a Flaviviridae, Especially Hcv” (priority 2004, published 2009):

How the values were obtained:
[1] = Cell viability (neutral red) on the replicon system; format: cell-based; conditions: human, Huh7 cells harbouring the subgenomic HCV replicon BM4-5, neutral red test, drug renewed daily for three days, read-out: CC50, cytotoxicity on Replicon System
Protocol: (§1) Antiviral and Cytotoxicity assays for HCV. Huh7 cells harbouring the subgenomic HCV replicon BM4-5 (J. T. Guo et al., J. Virol. 2001, 75: 8516-8523) were used in this study. Cells were maintained in Dulbecco's modified Eagle's medium high glucose 4.5 g/l (LifeTechnlogies) supplemented with 10% fetal bovine serum, 1% L-glutamine, 1% penicillin and streptomycin, 1% L-Pyruvate and 500 μg/ml of geneticien (G418, Invitrogen). Geneticin was used to select cells permitting the HCV RNA replication. Cells were passaged every four days with a 1:4 ratio.
For cell viability assays, cells were seeded in 96-well plates at a density of 12,500 cells per well. They were treated by the different molecules with the same concentrations and conditions than those used for the antiviral assays. Then, cell viability was measured by neutral red assay. Neutral red specifically colors lysosomes and its accumulation depends on cellular membrane integrity. The yield of neutral red incorporated in cells is proportional to the number of living cells. At the end of treatment, culture medium was removed; cells were washed by PBS, then coloured with neutral red at 0.005% for 3 hours at 37° C. Cells were then fixed 1 minute by formol calcium and lysed by atreatment with a vol/vol mixture of acetic acid and ethanol. After 15 minutes incubation, absorbance was read at 490 nm.

[2] = test system: subgenomic HCV replicon BM4-5 in Huh7 cells; test: Antiviral assay on HCV subgenomic replicon, Northern blot of (+)-strand HCV RNA; format: cell-based, Hepatitis C Virus; conditions: for IC50 / IC90: Hepatitis C virus, 72 h, Huh7 BM4-5 replicon, positive strand HCV RNA by Northern blot, three days treatment; for IC50: read-out: IC50, anti-HCV activity, (+)-RNA; for Selectivity Index (SI), ratio between CC50 and IC50: replicon system; for IC90: read-out: IC90, anti-HCV activity, (+)-RNA
Protocol: as §1
Cells were seeded in 6-wells plates at a density of 2.5×10^5 cells per well, sixteen hours before the beginning of treatment. […] The administration of each drug was renewed every day for three consecutive days. Ribarivin (ICN Pharmaceuticals), mycophenolic acid (MPA, Sigma), and interferon alpha-2b (IntronA®)) were used in the same conditions as positive controls. The concentrations used for these drugs were respectively: 0; 0.5; 1; 2; 4; 8; 16; 32; 64; 128; 256 and 512 μM for ribavirin, 0; 2.5; 5; 10; 20; 40 μM for mycophenolic acid, and 0; 0.1; 1; 10; 100 and 1000 Ul/mL for IFN alpha-2b. Total RNA was extracted at the end of treatment (24 hours after the last day of treatment) with the <<Extract all>> reagent (Eurobio), which is a mix of phenol and guanidium thiocyanate. Northern blot analysis was then performed using the NorthernMax™-Gly kit (Ambion), following manufacturer's instructions. Five micrograms of total RNA were denaturated in glyoxal buffer at 50° C. for 30 minutes, separated by 1.1% agarose gel electrophoresis, and then transferred for 12 hours onto a charged nylon membrane (HybondN+, Amersham). Hybridization was carried out with three different [^32P]CTP-labelled riboprobes obtained by in vitro transcription (Riboprobe in vitro transcription system, Promega). Two probes were complementary to the NS5A region of the HCV genome of negative polarity and positive polarity. A third probe was complementary to the beta-actin mRNA and obtained by in vitro transcription from a specific plasmid (PTRI beta actin human, reference 7424, Ambion). First, the blot was hybridized with the riboprobes directed against the negative strand of HCV RNA and beta-actin mRNA, respectively. After one night of hybridization at 68° C., the membrane was washed, then exposed to X-ray film and a phosphor screen (phosphorimager). This screen was then scanned and quantitative analysis was achieved using ImageQuant software. The amount of beta-actin mRNA was used as an internal loading control to standardize the amount of HCV RNA detected. The same membrane was subsequently hybridized with the […] to determine the level of positive strand HCV RNA, suing the same approach.

[3] = Cytotoxicity against CEM cells; format: cell-based; conditions: human
[4] = Cytotoxicity against VERO cells; format: cell-based; conditions: African green monkey
[5] = Cytotoxicity against PBM cells; format: cell-based; conditions: human

Row | melting point | SMILES | CC50 at 3 days [1] [µM] | IC50 [2] [µM] | Selectivity Index (SI), ratio between CC50 and IC50 [2] | CC50 [3] [µM] | IC90 [2] [µM] | CC50 [4] [µM] | CC50 [5] [µM]
1 | 83 to 85 °C | CC(=O)OC[C@H]1O[C@@H](n2cc(/C(Br)=C\Br)c(=O)[nH]c2=O)[C@H](OC(C)=O)[C@@H]1OC(C)=O | – | – | – | – | – | – | –
2 | – | COc1c(C)c2c(c(O)c1C/C=C(\C)CCC(=O)O)C(=O)OC2 [MPA, mycophenolic acid, reference compound] | 7 | 40 | <1 | – | – | – | –
3 | – | O=c1[nH]c(=O)n([C@@H]2O[C@H](CO)C[C@H]2O)cc1/C(Br)=C\Br [Compound 17c, (E)-5-(1,2-Dibromovinyl)-3′-deoxyuridine] | > 200 | > 200 | ≦1 | 79.3 | > 200 | 7.8 | > 100
4 | – | O=c1[nH]c(=O)n([C@H]2C[C@H](O)[C@@H](CO)O2)cc1/C(Br)=C\Br [Compound 17a, (E)-5-(1,2-Dibromovinyl)-2′-deoxyuridine] | > 200 | < 200 | ≧1 | 43.9 | > 200 | > 100 | > 100
5 | – | O=c1[nH]c(=O)n([C@@H]2O[C@H](CO)C[C@H]2O)cc1C#CBr [Compound 13c, 5-(2-Bromoethynyl)-3′-deoxyuridine] | > 300 | > 300 | ≦1 | > 100 | > 300 | 6.4 | > 100
6 | – | O=c1[nH]c(=O)n([C@H]2C[C@H](O)[C@@H](CO)O2)cc1/C(Br)=C\I [Compound 15a, (E)-5-(1-Bromo-2-iodovinyl)-2′-deoxyuridine] | 43 | > 100 | <1 | 0.13 | > 100 | 6.6 | 13.3
7 | – | O=c1[nH]c(=O)n([C@H]2C[C@H](O)[C@@H](CO)O2)cc1/C(Cl)=C\I [Compound 16a, (E)-5-(1-Chloro-2-iodovinyl)-2′-deoxyuridine] | 213 | 79.8 | 2.7 | 14.8 | > 207 | 1.4 | 3.2
8 | 82 to 84 °C | CC(=O)OC[C@H]1O[C@@H](n2cc(/C(Br)=C\I)c(=O)[nH]c2=O)C[C@@H]1OC(C)=O | – | – | – | – | – | – | –
9 | 79 to 81 °C | CC(=O)OC[C@H]1O[C@@H](n2cc(C(Br)=CBr)c(=O)[nH]c2=O)C[C@@H]1OC(C)=O | – | – | – | – | – | – | –
10 | – | O=c1[nH]c(=O)n([C@@H]2O[C@H](CO)[C@@H](O)[C@H]2O)cc1/C(Br)=C\I [Compound 15b, (E)-5-(1-Bromo-2-iodovinyl)-uridine] | > 100 | > 100 | ≦1 | 93.6 | > 100 | > 100 | > 100
11 | 100 to 102 °C | CC(=O)OC[C@H]1O[C@@H](n2cc(C#CI)c(=O)[nH]c2=O)[C@H](OC(C)=O)[C@@H]1OC(C)=O | – | – | – | – | – | – | –
12 | – | O=c1[nH]c(=O)n([C@H]2C[C@H](O)[C@@H](CO)O2)cc1C#CBr [Compound 13a, 5-(2-Bromoethynyl)-2′-deoxyuridine] | > 200 | > 200 | ≧1 | > 100 | > 200 | > 100 | > 100
13 | 86 to 88 °C | CC(=O)OC[C@H]1O[C@@H](n2cc(/C(Br)=C\I)c(=O)[nH]c2=O)[C@H](OC(C)=O)[C@@H]1OC(C)=O | – | – | – | – | – | – | –
14 | – | O=c1[nH]c(=O)n([C@@H]2O[C@H](CO)C[C@H]2O)cc1/C(Cl)=C\I [Compound 16c, (E)-5-(1-Chloro-2-iodovinyl)-3′-deoxyuridine] | > 200 | > 200 | ≦1 | 66.6 | > 200 | 15.3 | 94.4
15 | 78 to 80 °C | CC(=O)OC[C@@H]1C[C@@H](OC(C)=O)[C@H](n2cc(C(Br)=CBr)c(=O)[nH]c2=O)O1 | – | – | – | – | – | – | –
16 | 75 to 77 °C | CC(=O)OC[C@@H]1C[C@@H](OC(C)=O)[C@H](n2cc(/C(I)=C\I)c(=O)[nH]c2=O)O1 | – | – | – | – | – | – | –
17 | – | O=c1[nH]c(=O)n([C@@H]2O[C@H](CO)[C@@H](O)[C@H]2O)cc1/C(Br)=C\Br [Compound 17b, (E)-5-(1,2-Dibromovinyl)-uridine] | > 200 | > 200 | ≦1 | > 100 | > 200 | 59.8 | > 100
18 | – | O=c1[nH]c(=O)n([C@@H]2O[C@H](CO)C[C@H]2O)cc1/C(I)=C\I [Compound 14c, (E)-5-(1,2-Diiodovinyl)-3′-deoxyuridine] | > 200 | > 200 | ≦1 | > 100 | > 200 | 42.6 | 87.2
19 | – | O=c1[nH]c(=O)n([C@@H]2O[C@H](CO)[C@@H](O)[C@H]2O)cc1C#CI [Compound 12b, 5-(2-Iodoethynyl)-uridine] | 148 | > 200 | <1 | > 100 | > 200 | > 100 | > 100
20 | 76 to 78 °C | CC(=O)OC[C@H]1O[C@@H](n2cc(/C(I)=C\I)c(=O)[nH]c2=O)C[C@@H]1OC(C)=O | – | – | – | – | – | – | –
21 | – | O=c1[nH]c(=O)n([C@@H]2O[C@H](CO)C[C@H]2O)cc1C#CI [Compound 12c, 5-(2-Iodoethynyl)-3′-deoxyuridine] | > 200 | > 200 | ≦1 | > 100 | > 200 | 3.2 | > 100
22 | 175 to 177 °C (dec.) | CC(=O)OC[C@H]1O[C@@H](n2cc(C#CI)c(=O)[nH]c2=O)C[C@@H]1OC(C)=O | – | – | – | – | – | – | –
23 | 83 to 85 °C | CC(=O)OC[C@H]1O[C@@H](n2cc(/C(I)=C\I)c(=O)[nH]c2=O)[C@H](OC(C)=O)[C@@H]1OC(C)=O | – | – | – | – | – | – | –

Row | SMILES | melting point | CC50 at 3 days [1] [µM] | IC50 [2] [µM] | Selectivity Index (SI), ratio between CC50 and IC50 [2] | CC50 [3] [µM] | IC90 [2] [µM] | CC50 [4] [µM] | CC50 [5] [µM]
24 | O=c1[nH]c(=O)n([C@H]2C[C@H](O)[C@@H](CO)O2)cc1C#CI [Compound 12a, 5-(2-Iodoethynyl)-2′-deoxyuridine] | 135 to 137 °C | > 182 | 57.1 | >3.2 | 15.8 | > 239 | > 100 | 7.5
25 | O=c1[nH]c(=O)n([C@H]2C[C@H](O)[C@@H](CO)O2)cc1/C(I)=C\I [Compound 14a, (E)-5-(1,2-Diiodovinyl)-2′-deoxyuridine] | 103 to 105 °C | 76.7 | > 161 | <1 | 19.5 | > 263 | 19.5 | 14.7
26 | O=c1[nH]c(=O)n([C@@H]2O[C@H](CO)[C@@H](O)[C@H]2O)cc1/C(I)=C\I [Compound 14b, (E)-5-(1,2-Diiodovinyl)-uridine] | 107 to 109 °C | > 250 | 162 | >1.5 | 41.7 | > 250 | 49.5 | > 100
